Like-named read-outs stand apart in the source and are kept apart here.
Assays:
Test in all cases: Ras GTP binding domain inhibition assay (Cy3-GTP/Cy5-GTP competition)
KRas G12D mutant = biological target: T1, KRas G12D mutant (Homo sapiens, UniProt P01116, G12D); settings: 20 μM
T1 construct: fused on or other part: His tag, used for capture on nickel-coated plates
Method in brief: (§1)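 His-tagged Ras proteins were captured on nickel-coated wells in Buffer-I (25 mM Tris-HCl pH 7.4, 27 mM KCl, 137 mM NaCl, 1 mM MgCl2, 1 mM DTT) or Buffer-II (50 mM Tris-HCl pH 7.0). Compounds (20 μM or serial dilution, 1% DMSO) were incubated 3 h at RT, ±Sos(556-1049) in the final hour. Bound Cy3-/Cy5-GTP (100 nM, 45 min) was read after washing.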

KRas Q61H mutant = tested on: KRas Q61H mutant; parameters: species or system human; settings: 20 μM
Method in brief: as §1

KRas wild type = tested on: KRas wild type; parameters: species or system human; settings: 20 μM; for KRas wild type: % inh.: without SOS; for KRas wild type % inh.: without SOS (Table 7A)
Method in brief: as §1

KRas G12C mutant = tested on: KRas G12C mutant; parameters: species or system human; settings: 20 μM
Method in brief: as §1

[1] = with SOS, read-out: KRas G-12D mutant + SOS: % inh.
[2] = without SOS, read-out: KRas G12D mutant: % inh.
[3] = with SOS (Table 7A), read-out: KRas G12D mutant + SOS: % inh.
[4] = without SOS (Table 7A), read-out: KRas G12D mutant: % inh.

Row | inhibition at 20 µM (KRas G12D mutant; [1]) | inhibition at 20 µM (KRas G12D mutant; [2]) | KRas Q61H mutant + SOS: % inh. (KRas Q61H mutant; with SOS) | KRas Q61H mutant: % inh. (KRas Q61H mutant; without SOS) | KRas wild type + SOS: % inh. (KRas wild type; with SOS) | KRas wild type: % inh. (KRas wild type) | KRas G12C mutant + SOS: % inh. (KRas G12C mutant; with SOS) | KRas G12C mutant: % inh. (KRas G12C mutant; without SOS) | inhibition at 20 µM (KRas G12D mutant; [3]) | inhibition at 20 µM (KRas G12D mutant; [4]) | KRas Q61H mutant + SOS: % inh. (KRas Q61H mutant; with SOS (Table 7A)) | KRas Q61H mutant: % inh. (KRas Q61H mutant; without SOS (Table 7A)) | KRas wild type + SOS: % inh. (KRas wild type; with SOS (Table 7A)) | KRas wild type % inh. (KRas wild type) | KRas G12C mutant + SOS: % inh. (KRas G12C mutant; with SOS (Table 7A)) | KRas G12C mutant: % inh. (KRas G12C mutant; without SOS (Table 7A)) | Compound
1 | 76 to 100% | 26 to 50% | D (76-100% inhibition) | B (26-50% inhibition) | D (76-100% inhibition) | B (26-50% inhibition) | D (76-100% inhibition) | B (26-50% inhibition) | – | – | – | – | – | – | – | – | COCCNc1nc(-c2nccn2C)nc2sc(-c3ccccc3Cl)c(-c3ccc(OC)cc3)c12 [drawing 876]
2 | 26 to 50% | 1 to 25% | D (76-100% inhibition) | A (1-25% inhibition) | D (76-100% inhibition) | A (1-25% inhibition) | C (51-75% inhibition) | A (1-25% inhibition) | – | – | – | – | – | – | – | – | COCCNc1nc(-c2nccn2C)nc2sc(-c3cc(OC)ccc3Cl)c(-c3ccc(OC)cc3)c12 [drawing 877]
3 | 1 to 25% | 1 to 25% | A (1-25% inhibition) | A (1-25% inhibition) | A (1-25% inhibition) | A (1-25% inhibition) | A (1-25% inhibition) | A (1-25% inhibition) | – | – | – | – | – | – | – | – | COc1cccc(-c2csc3c(O)nc(-c4nccn4C)nc23)c1Cl [drawing 878]
4 | – | – | – | – | – | – | – | – | 26 to 50% | 51 to 75% | B (26-50% inhibition) | B (26-50% inhibition) | A (1-25% inhibition) | B (26-50% inhibition) | A (1-25% inhibition) | B (26-50% inhibition) | COc1c(O)nc(-c2ccccn2)nc1Oc1ccc(C(=O)N(C)C)cc1 [drawing 879]
5 | – | – | – | – | – | – | – | – | 26 to 50% | 26 to 50% | C (51-75% inhibition) | C (51-75% inhibition) | B (26-50% inhibition) | C (51-75% inhibition) | B (26-50% inhibition) | C (51-75% inhibition) | COc1c(O)nc(-c2ccccn2)nc1Nc1ccccc1 [drawing 880]
6 | – | – | – | – | – | – | – | – | 26 to 50% | 26 to 50% | B (26-50% inhibition) | A (1-25% inhibition) | B (26-50% inhibition) | C (51-75% inhibition) | B (26-50% inhibition) | C (51-75% inhibition) | CCn1cc(Nc2nc(-c3ccccn3)nc(O)c2OC)cn1 [drawing 881]
7 | – | – | – | – | – | – | – | – | 26 to 50% | 51 to 75% | C (51-75% inhibition) | C (51-75% inhibition) | B (26-50% inhibition) | C (51-75% inhibition) | C (51-75% inhibition) | C (51-75% inhibition) | CCOc1cccc(Nc2nc(-c3ccccn3)nc(O)c2OC)c1 [drawing 882]
8 | – | – | – | – | – | – | – | – | 51 to 75% | 26 to 50% | D (76-100% inhibition) | C (51-75% inhibition) | D (76-100% inhibition) | C (51-75% inhibition) | D (76-100% inhibition) | B (26-50% inhibition) | COc1cccc(-c2sc3nc(-c4nccn4C)nc(NC4CCC(OC)C4)c3c2-c2ccccc2)c1F (centres unmarked) [drawing 883]
9 | – | – | – | – | – | – | – | – | 51 to 75% | 26 to 50% | C (51-75% inhibition) | B (26-50% inhibition) | C (51-75% inhibition) | B (26-50% inhibition) | C (51-75% inhibition) | B (26-50% inhibition) | COC1CCC(Nc2nc(-c3nccn3C)nc3sc(-c4cccc(O)c4F)c(-c4ccccc4)c23)C1 (centres unmarked) [drawing 885]
10 | – | – | – | – | – | – | – | – | 1 to 25% | 1 to 25% | B (26-50% inhibition) | A (1-25% inhibition) | A (1-25% inhibition) | B (26-50% inhibition) | A (1-25% inhibition) | B (26-50% inhibition) | COc1c(F)cccc1-c1sc2nc(-c3nccn3C)nc(NC3CCC(OC)C3)c2c1-c1ccccc1 (centres unmarked) [drawing 886]
11 | – | – | – | – | – | – | – | – | 26 to 50% | 26 to 50% | D (76-100% inhibition) | C (51-75% inhibition) | D (76-100% inhibition) | B (26-50% inhibition) | D (76-100% inhibition) | B (26-50% inhibition) | COC1CCC(Nc2nc(-c3nccn3C)nc3sc(-c4cccc5[nH]ncc45)c(-c4ccccc4)c23)C1 (centres unmarked) [drawing 888]

Further lines, the compound ahead of its results:

Row | Compound | inhibition at 20 µM (KRas G12D mutant; [1]) | inhibition at 20 µM (KRas G12D mutant; [2]) | KRas Q61H mutant + SOS: % inh. (KRas Q61H mutant; with SOS) | KRas Q61H mutant: % inh. (KRas Q61H mutant; without SOS) | KRas wild type + SOS: % inh. (KRas wild type; with SOS) | KRas wild type: % inh. (KRas wild type) | KRas G12C mutant + SOS: % inh. (KRas G12C mutant; with SOS) | KRas G12C mutant: % inh. (KRas G12C mutant; without SOS) | inhibition at 20 µM (KRas G12D mutant; [3]) | inhibition at 20 µM (KRas G12D mutant; [4]) | KRas Q61H mutant + SOS: % inh. (KRas Q61H mutant; with SOS (Table 7A)) | KRas Q61H mutant: % inh. (KRas Q61H mutant; without SOS (Table 7A)) | KRas wild type + SOS: % inh. (KRas wild type; with SOS (Table 7A)) | KRas wild type % inh. (KRas wild type) | KRas G12C mutant + SOS: % inh. (KRas G12C mutant; with SOS (Table 7A)) | KRas G12C mutant: % inh. (KRas G12C mutant; without SOS (Table 7A))
12 | COc1ccc(-c2c(-c3ccn(C)n3)sc3nc(-c4nccn4C)nc(N4CCC(OC)C4)c23)cc1 (centres unmarked) [drawing 868] | 1 to 25% | 0% | B (26-50% inhibition) | A (1-25% inhibition) | A (1-25% inhibition) | 0 (0% inhibition) | A (1-25% inhibition) | 0 (0% inhibition) | – | – | – | – | – | – | – | –
13 | COCC(C)Nc1nc(-c2nccn2C)nc2sc(-c3ccn(C)n3)c(-c3ccc(OC)cc3)c12 (centres unmarked) [drawing 869] | 1 to 25% | 0% | A (1-25% inhibition) | A (1-25% inhibition) | A (1-25% inhibition) | A (1-25% inhibition) | A (1-25% inhibition) | 0 (0% inhibition) | – | – | – | – | – | – | – | –
14 | COCCCNc1nc(-c2nccn2C)nc2sc(-c3ccn(C)n3)c(-c3ccc(OC)cc3)c12 [drawing 870] | 1 to 25% | 0% | A (1-25% inhibition) | A (1-25% inhibition) | 0 (0% inhibition) | A (1-25% inhibition) | A (1-25% inhibition) | 0 (0% inhibition) | – | – | – | – | – | – | – | –
15 | COCCNc1nc(-c2nccn2C)nc2sc(-c3cc(OC)ccc3Cl)c(-c3ccccc3)c12 [drawing 871] | 1 to 25% | 26 to 50% | A (1-25% inhibition) | C (51-75% inhibition) | A (1-25% inhibition) | B (26-50% inhibition) | A (1-25% inhibition) | 0 (0% inhibition) | – | – | – | – | – | – | – | –
16 | COCCNc1nc(-c2nccn2C)nc2sc(-c3cccc(OC)c3Cl)c(-c3ccccc3)c12 [drawing 872] | 76 to 100% | 1 to 25% | D (76-100% inhibition) | B (26-50% inhibition) | D (76-100% inhibition) | B (26-50% inhibition) | D (76-100% inhibition) | C (51-75% inhibition) | – | – | – | – | – | – | – | –
17 | COCCNc1nc(-c2cn(C)cn2)nc2sc(-c3ccccc3Cl)c(-c3ccc(OC)cc3)c12 [drawing 873] | 76 to 100% | 26 to 50% | D (76-100% inhibition) | B (26-50% inhibition) | D (76-100% inhibition) | A (1-25% inhibition) | D (76-100% inhibition) | C (51-75% inhibition) | – | – | – | – | – | – | – | –
18 | COCCNc1nc(-c2nccn2C)nc2sc(-c3cccc(OC)c3Cl)c(-c3ccc(OC)cc3)c12 [drawing 874] | 51 to 75% | 1 to 25% | D (76-100% inhibition) | A (1-25% inhibition) | D (76-100% inhibition) | B (26-50% inhibition) | D (76-100% inhibition) | B (26-50% inhibition) | – | – | – | – | – | – | – | –
19 | COCCNc1nc(-c2nccn2C)nc2sc(-c3cccc(OC)c3)c(-c3ccc(OC)cc3)c12 [drawing 875] | 76 to 100% | 51 to 75% | D (76-100% inhibition) | B (26-50% inhibition) | D (76-100% inhibition) | B (26-50% inhibition) | D (76-100% inhibition) | C (51-75% inhibition) | – | – | – | – | – | – | – | –
